Measurements: ChEMBL document CHEMBL1201862, “PubChem BioAssay data set” (2004)
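1) Cells in 96-well plates. 2) Compound, 48 h, 5 concentrations. 3) Linear interpolation between surrounding doses. 4) Unreached endpoint = highest concentration. GI50 = concentration required for 50% inhibition of growth.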 Activity calls are given as the source filed them. Rule as the data show it: active = GI50 up to about 1.1 µM and inactive = higher.

Assays:
Assay in all cases: growth of human tumour cells (NCI), 48 h
KM12 = test system: KM12
CAKI-1 = test system: CAKI-1
SF-539 = test system: SF-539
ACHN = test system: ACHN
OVCAR-4 = test system: OVCAR-4
SW-620 = test system: SW-620
U-251 = test system: U-251
NCI/ADR-RES = test system: NCI/ADR-RES
NCI-H226 = test system: NCI-H226
MDA-MB-435 = test system: MDA-MB-435
HCC 2998 = test system: HCC 2998
MOLT-4 = test system: MOLT-4
MCF7 = test system: MCF7
NCI-H23 = test system: NCI-H23
TK-10 = test system: TK-10
SK-OV-3 = test system: SK-OV-3
SN12C = test system: SN12C
PC-3 = test system: PC-3
SNB-75 = test system: SNB-75
DU-145 = test system: DU-145
IGROV-1 = test system: IGROV-1
SK-MEL-28 = test system: SK-MEL-28
HL-60 = test system: HL-60
NCI-H460 = test system: NCI-H460
OVCAR-5 = test system: OVCAR-5
SF-295 = test system: SF-295
A549 = test system: A549
LOX IMVI = test system: LOX IMVI
HCT-15 = test system: HCT-15
UO-31 = test system: UO-31
EKVX = test system: EKVX
UACC-257 = test system: UACC-257
M14 = test system: M14
SK-MEL-5 = test system: SK-MEL-5
COLO 205 = test system: COLO 205
OVCAR-8 = test system: OVCAR-8
HT-29 = test system: HT-29
SNB-19 = test system: SNB-19
HOP-62 = test system: HOP-62
T47D = test system: T47D
MDA-MB-231 = test system: MDA-MB-231
786-0 = test system: 786-0
HCT-116 = test system: HCT-116
OVCAR-3 = test system: OVCAR-3
SK-MEL-2 = test system: SK-MEL-2
HOP-92 = test system: HOP-92
MDA-N = test system: MDA-N
RXF 393 = test system: RXF 393
A498 = test system: A498
BT-549 = test system: BT-549
NCI-H522 = test system: NCI-H522
UACC-62 = test system: UACC-62

SMILES: O=C1Nc2ccccc2/C1=N/Nc1nc(-c2ccccc2)cs1
- GI50 (KM12): 30.3 µM (inactive)
- GI50 (CAKI-1): 18.3 µM (inactive)
- GI50 (SF-539): 10.1 µM (inactive)
- GI50 (ACHN): 24.5 µM (inactive)
- GI50 (OVCAR-4): 40.7 µM (inactive)
- GI50 (SW-620): > 100 µM (inactive)
- GI50 (U-251): 24.2 µM (inactive)
- GI50 (NCI/ADR-RES): 20.5 µM (inactive)
- GI50 (NCI-H226): > 100 µM (inactive)
- GI50 (MDA-MB-435): > 100 µM (inactive)
- GI50 (HCC 2998): 52.5 µM (inactive)
- GI50 (MOLT-4): 45.2 µM (inactive)
- GI50 (MCF7): 27.2 µM (inactive)
- GI50 (NCI-H23): 47.6 µM (inactive)
- GI50 (TK-10): 31.9 µM (inactive)
- GI50 (SK-OV-3): 59 µM (inactive)
- GI50 (SN12C): 27.1 µM (inactive)
- GI50 (PC-3): 19.2 µM (inactive)
- GI50 (SNB-75): 8.63 µM (inactive)
- GI50 (DU-145): 35.5 µM (inactive)
- GI50 (IGROV-1): 21.1 µM (inactive)
- GI50 (SK-MEL-28): 36.1 µM (inactive)
- GI50 (HL-60): 2.45 µM (inactive)
- GI50 (NCI-H460): 14.7 µM (inactive)
- GI50 (OVCAR-5): 58.3 µM (inactive)
- GI50 (SF-295): 24.5 µM (inactive)
- GI50 (A549): 75.3 µM (inactive)
- GI50 (LOX IMVI): 44.6 µM (inactive)
- GI50 (HCT-15): 23.1 µM
- GI50 (UO-31): 24.7 µM (inactive)
- GI50 (EKVX): 21.4 µM (inactive)
- GI50 (UACC-257): 56.2 µM (inactive)
- GI50 (M14): 23.1 µM (inactive)
- GI50 (SK-MEL-5): 25.8 µM (inactive)
- GI50 (COLO 205): 42.4 µM (inactive)
- GI50 (OVCAR-8): 40.1 µM (inactive)
- GI50 (HT-29): 27.7 µM (inactive)
- GI50 (SNB-19): 29.9 µM (inactive)
- GI50 (HOP-62): 18.2 µM (inactive)
- GI50 (T47D): 26.9 µM (inactive)
- GI50 (MDA-MB-231): 28.3 µM (inactive)
- GI50 (786-0): 26.4 µM (inactive)
- GI50 (HCT-116): 31.9 µM (inactive)
- GI50 (OVCAR-3): 26.4 µM (inactive)
- GI50 (SK-MEL-2): 84.1 µM (inactive)
- GI50 (HOP-92): 35.7 µM (inactive)
- GI50 (MDA-N): 62.4 µM (inactive)

SMILES: CCN1C/C(=C\c2ccc(Cl)cc2)C2=NN(c3ccccc3)C(c3ccc(Cl)cc3)C2C1 (centres undefined)
- GI50 (RXF 393): > 100 µM (inactive)
- GI50 (ACHN): > 100 µM (inactive)
- GI50 (NCI/ADR-RES): > 100 µM (inactive)
- GI50 (NCI-H226): > 100 µM (inactive)
- GI50 (A498): > 100 µM (inactive)
- GI50 (MCF7): 53.1 µM (inactive)
- GI50 (NCI-H23): > 100 µM (inactive)
- GI50 (TK-10): > 100 µM (inactive)
- GI50 (SK-OV-3): > 100 µM (inactive)
- GI50 (PC-3): > 100 µM (inactive)
- GI50 (SNB-75): > 100 µM (inactive)
- GI50 (DU-145): > 100 µM (inactive)
- GI50 (NCI-H460): > 100 µM (inactive)
- GI50 (OVCAR-5): > 100 µM (inactive)
- GI50 (SF-295): > 100 µM (inactive)
- GI50 (A549): > 100 µM (inactive)
- GI50 (LOX IMVI): > 100 µM (inactive)
- GI50 (HCT-15): > 100 µM
- GI50 (UO-31): > 100 µM (inactive)
- GI50 (EKVX): > 100 µM (inactive)
- GI50 (UACC-257): > 100 µM (inactive)
- GI50 (M14): > 100 µM (inactive)
- GI50 (SK-MEL-5): > 100 µM (inactive)
- GI50 (COLO 205): > 100 µM (inactive)
- GI50 (OVCAR-8): > 100 µM (inactive)
- GI50 (SNB-19): > 100 µM (inactive)
- GI50 (HOP-62): > 100 µM (inactive)
- GI50 (BT-549): > 100 µM (inactive)
- GI50 (NCI-H522): > 100 µM (inactive)
- GI50 (786-0): > 100 µM (inactive)
- GI50 (HCT-116): > 100 µM (inactive)
- GI50 (UACC-62): > 100 µM (inactive)
